The target of the test is T1, thermopsin, thermostable acid protease purified from Sulfolobus acidocaldarius culture medium (Sulfolobus acidocaldarius, UniProt P17118).
T1 construct: The purification of thermopsin, therefore, was carried out using culture media as starting material; endogenous in cells; host or cells: Sulfolobus acidocaldarius (natural producer); enzyme purified in-house from the culture medium, not recombinant
T1 sequence (P17118 42-340): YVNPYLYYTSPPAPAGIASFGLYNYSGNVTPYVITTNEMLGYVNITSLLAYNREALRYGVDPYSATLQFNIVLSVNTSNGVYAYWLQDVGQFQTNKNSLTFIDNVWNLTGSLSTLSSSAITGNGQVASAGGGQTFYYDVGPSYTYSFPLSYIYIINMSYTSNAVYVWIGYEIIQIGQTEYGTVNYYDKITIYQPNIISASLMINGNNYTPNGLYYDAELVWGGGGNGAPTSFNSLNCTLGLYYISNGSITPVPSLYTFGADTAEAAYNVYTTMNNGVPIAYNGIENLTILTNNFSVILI
In words: Effects of proteinase inhibitors on thermopsin proteolytic activity (14C-methylated hemoglobin assay). The class given is biochemical. To be noted: no concentration stated; see Table II. The method, then: Proteolytic activity is routinely assayed using ^14 C-methylated bovine hemoglobin as substrate, as prepared according to the method of Lin, et al., J. Biol. Chem., (1989, in press). The assay mixture, containing 0.51% hemoglobin substrate and thermopsin in 0.1 ml of 0.1M sodium formate, pH 3.2, is placed in an Eppendorf tube. After incubation at 80° C. for a period of time between 5 to 30 min, depending on the level of activity of thermopsin used, an aliquot of 0.1 ml of 10% trichloracetic acid is added to stop the reaction and precipitate the protein. After removal of the precipitate by centrifugation, the radioactivity of an aliquot of the clear supernate is determined in a scintillation counter.
The effect of various protease inhibitors on the activity of thermopsin was tested.
Thermopsin is preincubated with the indicated level of inhibitor in 0.1 M
phosphate buffer, pH 6.0, containing 1 mM EDTA and DTT at 37° C.
for 5 min. Sodium formate (pH 3.2) and ^14 CHemoglobin is then added
to a concentration as described above. The enzyme assay is then carried
out at 80° C. for 15 min. Enzyme activity is expressed as percent

Entries after “also recorded” stand apart in the source; their conditions may differ. Numbered stars: 1 amine (or outer) side, 2 acyl side, 3 side chain; on linkers, the order of the positions; unused ones are H or OH. Peptide text beside a SMILES is read from it. CO = O=C([*:1])[*:2]

Regarding `O=S(=O)(F)Cc1ccccc1` [PMSF, phenylmethylsulfonyl fluoride], the “effect of inhibitor on thermopsin activity (in words)” value (shortened to “effect of inhibitor”) was “significantly inactivate; also recorded: significant inhibition”.

As for `Cc1ccc(S(=O)(=O)N[C@@H](Cc2ccccc2)C(=O)CCl)cc1` [TPCK, N-Tosyl-L-phenylalanine chloromethyl ketone], the “effect of inhibitor” value is recorded as “significantly inactivate; also recorded: significant inhibition”.

For the compound `CC(C)[C@H](NC(=O)[C@H](CCCNC(=N)N)NC(=O)N[C@@H](Cc1ccccc1)C(=O)O)C(=O)N[C@H](C=O)CCCNC(=N)N` [Antipain, antipain] ({Phe-CO}-Arg-Val-Arg-aldehyde), the “effect of inhibitor” value is recorded as “inhibited; also recorded: significant inhibition”.

Consider `CCN1C(=O)C=CC1=O` [N-ethylmaleimide], for which the “effect of inhibitor” value is listed as “little effect”.

For the compound `Cc1ccc(S(=O)(=O)N[C@@H](CCCCN)C(=O)CCl)cc1` [TLCK, N-p-Tosyl-1-lysine chloromethyl ketone], the “effect of inhibitor” value is listed as “much less effective”.

As for `CCCCC(NC(=O)C=[N+]=[N-])C(=O)OC` (racemic) [DAN, diazoacetyl-DL-norleucinemethlyester], the “effect of inhibitor” value is “not inactivated; also recorded: no effect”.

The values are drawn from patent US5215907A, “Thermostable acid protease from sulfolobus acidocaldarius” (Oklahoma Medical Research Foundation, priority 1992, dated 1993).
